Measured values published in article PMC5915086 (Oncotarget, 2018).
“Also recorded” adds a separate entry of the source.

Tests used:
[1] = test system: acute myeloid leukemia, colon cancer, or lung cancer cell lines; assay: Proliferation of non-MM cancer cell lines, 6 days; assay type: cell-based, human
Description: (§1) Chemiluminescence was measured with a microplate reader. […] K562 cells were cultured in RPMI 10% FBS.
6 days. Relative ATP concentration was calculated based on chemiluminescence relative to the 0 nM value (control). Data are presented as
mean ± standard deviation (n = 3).
(§2) (1 picture or pasted object on this page, not shown here)

NCI-H929 cells = assay: Cell cycle analysis by flow cytometry (DNA content); assay type: cell-based, human; settings: for G1 cell fraction / G2-M cell fraction / S cell fraction / sub-G1 cell fraction: NCI-H929, 1 μM, 72 h
Description: To measure DNA content for cell cycle distribution analysis, cells were incubated with 70% ethanol/PBS (v/v) overnight. Fixed cells were stained with propidium iodide and analyzed on a FACS LSRFortessa system (BD Biosciences, Franklin Lakes, NJ, USA).

[2] = test system: BAF155 dimethylation in KMS-27 cells; assay: BAF155 dimethylation in MM cells, western blotting; assay type: cell-based, human
Description: (§4) The lysates were separated by SDS-polyacrylamide gel electrophoresis and transferred to a nitrocellulose membrane using an iBlot Transfer Stack and iBlot Gel Transfer Device (Thermo Fisher Scientific, Waltham, MA, USA). […] The membrane was incubated with ImmunoStar LD (Wako Pure Chemical Industries, Osaka, Japan), and signals were detected with an ImageQuant LAS-3000 imaging system (Fujifilm, Tokyo, Japan).

PRMT9 = molecular target: T1, PRMT9 (Homo sapiens, UniProt Q6P2P2); assay: PRMT9 methyltransferase scintillation proximity assay; assay type: biochemical
T1 construct: 1–845; made in house
T1 sequence (Q6P2P2 whole entry): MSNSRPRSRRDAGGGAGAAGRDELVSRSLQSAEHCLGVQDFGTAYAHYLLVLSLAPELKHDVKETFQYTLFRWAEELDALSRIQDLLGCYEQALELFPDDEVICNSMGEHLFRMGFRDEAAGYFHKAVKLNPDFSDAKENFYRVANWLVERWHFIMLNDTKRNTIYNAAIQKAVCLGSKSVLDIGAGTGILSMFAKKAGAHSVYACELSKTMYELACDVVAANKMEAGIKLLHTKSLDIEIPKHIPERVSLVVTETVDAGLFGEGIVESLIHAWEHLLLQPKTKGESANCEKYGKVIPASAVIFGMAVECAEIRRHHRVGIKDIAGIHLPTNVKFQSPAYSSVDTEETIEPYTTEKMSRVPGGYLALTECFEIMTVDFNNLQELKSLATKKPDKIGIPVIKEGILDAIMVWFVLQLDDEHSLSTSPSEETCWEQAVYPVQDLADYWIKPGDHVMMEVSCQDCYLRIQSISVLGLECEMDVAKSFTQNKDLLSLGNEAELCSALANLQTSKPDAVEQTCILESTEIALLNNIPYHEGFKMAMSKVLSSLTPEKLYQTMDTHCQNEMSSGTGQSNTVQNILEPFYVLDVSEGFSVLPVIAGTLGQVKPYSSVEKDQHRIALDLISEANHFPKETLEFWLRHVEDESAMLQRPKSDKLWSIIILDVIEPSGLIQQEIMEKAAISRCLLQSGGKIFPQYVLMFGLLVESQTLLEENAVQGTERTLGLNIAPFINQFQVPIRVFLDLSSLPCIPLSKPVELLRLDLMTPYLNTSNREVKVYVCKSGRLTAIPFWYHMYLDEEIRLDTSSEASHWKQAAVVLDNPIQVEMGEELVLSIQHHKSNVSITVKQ
Description: (§5) In the scintillation proximity assay (SPA), specific amounts of enzyme and biotinylated peptide substrate were mixed with the compound and the reaction was initiated by adding SAM. IC50 values were measured at the apparent Km concentrations of the substrate and SAM. The reaction was quenched by adding an equal volume of 7.5 M guanidine hydrochloride, and the reaction product was measured by SPA using FlashPlate Plus and TopCount NXT HTS plate reader (both from Perkin Elmer Life Sciences).

K562 cells = assay: K562 cell viability, SYTOX Blue flow cytometry; assay type: cell-based; settings: 3 μM TP-064, 5 μM SGC0946, 6 days; preliminary experiments
Description: as §1
growth. […] The inhibitors were topped up after
3 days. After 6 days, cells were stained with SYTOX Blue dead cell stain and the number of viable cells was determined by flow cytometry.
Data are presented as mean ± SD (n = 5). The predicted additive effect was calculated as Fa + Fb × (1 − Fa), where Fa and Fb are the
as §2

PRMT7 = molecular target: T2, PRMT7 (Homo sapiens, UniProt Q9NVM4); assay: PRMT7 methyltransferase scintillation proximity assay; assay type: biochemical
T2 construct: 1–692; made in house
T2 sequence (Q9NVM4 whole entry): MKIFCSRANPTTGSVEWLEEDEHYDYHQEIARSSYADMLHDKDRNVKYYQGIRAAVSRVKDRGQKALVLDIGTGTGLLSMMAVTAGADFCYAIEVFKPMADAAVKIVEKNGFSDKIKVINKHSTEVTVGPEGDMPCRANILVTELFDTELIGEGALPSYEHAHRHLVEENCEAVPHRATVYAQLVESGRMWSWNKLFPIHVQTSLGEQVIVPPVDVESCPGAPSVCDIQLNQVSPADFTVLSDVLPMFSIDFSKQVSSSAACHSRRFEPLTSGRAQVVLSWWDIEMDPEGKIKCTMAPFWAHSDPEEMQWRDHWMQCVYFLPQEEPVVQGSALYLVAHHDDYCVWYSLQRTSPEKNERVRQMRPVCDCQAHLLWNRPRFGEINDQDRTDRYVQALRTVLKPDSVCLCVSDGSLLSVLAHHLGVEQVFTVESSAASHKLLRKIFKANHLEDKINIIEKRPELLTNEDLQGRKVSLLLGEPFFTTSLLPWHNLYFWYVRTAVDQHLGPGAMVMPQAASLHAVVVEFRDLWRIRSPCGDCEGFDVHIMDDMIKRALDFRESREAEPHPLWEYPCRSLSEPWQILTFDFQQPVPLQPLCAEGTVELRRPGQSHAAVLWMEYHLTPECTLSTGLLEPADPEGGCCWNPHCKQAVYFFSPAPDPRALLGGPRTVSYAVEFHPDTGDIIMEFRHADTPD
Description: as §5
(§6) The selectivity assay was performed as previously described [31]. The effect of test compounds on the methyltransferase activities of Euchromatic histone-lysine N-methyltransferase 2 (G9a), G9a-like protein (GLP), Suppressor of variegation 3-9 homolog (SUV39H)1, SUV39H2, SUV420H1, SUV420H2, SET domain (SETD)2, SETD8, SETD bifurcated 1 (SETDB1), SETD7, Mixed-lineage leukemia (MLL)1 trimeric complex, MLL3 pentameric complex, Enhancer of zeste homolog (EZH)2 trimeric complex, PRMT1, PRMT3, PRMT4, PRMT5/Methylosome protein (MEP)50 complex, PRMT6, PRMT7, PRMT8, PRMT9, PR domain zinc finger protein (PRDM)9, SET and MYND domain-containing (SMYD)2, SMYD3, and DNA methyltransferase (DNMT)1 was assessed by monitoring the incorporation of a tritium-labeled methyl group into substrates with the scintillation proximity assay [32]. […]

PRMT4 [3] = molecular target: T3, PRMT4 (Homo sapiens, UniProt Q86X55); assay: Substrate competition assay (mechanism of action); assay type: biochemical; design: 1–608; made in house; settings: versus SAM and substrate peptide
T3 sequence (Q86X55 1-608): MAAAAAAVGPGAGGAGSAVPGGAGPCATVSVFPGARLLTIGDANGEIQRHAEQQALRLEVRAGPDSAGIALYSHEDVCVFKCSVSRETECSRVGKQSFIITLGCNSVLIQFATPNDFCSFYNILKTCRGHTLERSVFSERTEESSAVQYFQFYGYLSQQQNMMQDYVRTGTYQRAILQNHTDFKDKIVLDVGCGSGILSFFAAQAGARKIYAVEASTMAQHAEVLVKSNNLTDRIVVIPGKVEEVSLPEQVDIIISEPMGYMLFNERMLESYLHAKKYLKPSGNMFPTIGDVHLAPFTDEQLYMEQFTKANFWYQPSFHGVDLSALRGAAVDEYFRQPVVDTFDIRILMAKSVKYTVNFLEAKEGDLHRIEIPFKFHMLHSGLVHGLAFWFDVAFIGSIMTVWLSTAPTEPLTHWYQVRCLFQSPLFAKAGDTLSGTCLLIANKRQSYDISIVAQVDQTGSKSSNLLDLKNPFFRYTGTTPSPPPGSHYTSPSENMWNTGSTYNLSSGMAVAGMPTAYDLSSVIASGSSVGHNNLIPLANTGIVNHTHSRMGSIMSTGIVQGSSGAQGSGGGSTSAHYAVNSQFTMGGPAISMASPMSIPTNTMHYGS
Description: The substrate competition assays were performed by measuring IC50 values at various concentrations of one substrate (e.g., peptide) and at saturating concentrations of the other (e.g., SAM) and vice versa, as previously described.

KMS-26 cells = assay: MM cell growth, CellTiter-Glo, 6 days; assay type: cell-based, human; settings: KMS-26, 6 days
Description: (§3) Red dots indicate MM cell lines. […] Data are presented as mean ± standard deviation (n = 3). IC50 values were calculated by nonlinear regression analysis of % inhibition. […] ATP concentration was calculated based on chemiluminescence values relative to the 0 nM value (control) in each cell line. PRMT4 mRNA expression levels in MM cells were determined with the Ion Ampliseq transcriptome assay and were normalized to that of glyceraldehyde 3-phosphate dehydrogenase (GAPDH) in each cell line.
as §1

KMS-20 cells = assay: MM cell growth, CellTiter-Glo, 6 days; assay type: cell-based, human; settings: KMS-20, 6 days
Description: as §3, §1

U266B1 cells = assay: MM cell growth, CellTiter-Glo, 6 days; assay type: cell-based, human; settings: U266B1, 6 days
Description: as §3, §1

KMS-12BM cells = assay: MM cell growth, CellTiter-Glo, 6 days; assay type: cell-based, human
Description: as §3, §1

KMS-27 cells = assay: MM cell growth, CellTiter-Glo, 6 days; assay type: cell-based, human; settings: KMS-27, 6 days
Description: as §3, §1

RPMI8226 cells = assay: MM cell growth, CellTiter-Glo, 6 days; assay type: cell-based, human; settings: RPMI8226, 6 days
Description: as §3, §1

KMS-12PE cells = assay: MM cell growth, CellTiter-Glo, 6 days; assay type: cell-based, human
Description: as §3, §1

KMS-28BM cells = assay: MM cell growth, CellTiter-Glo, 6 days; assay type: cell-based, human
Description: as §3, §1

MM.1S cells = assay: MM cell growth, CellTiter-Glo, 6 days; assay type: cell-based, human
Description: as §3, §1

KMS-11 cells = assay: MM cell growth, CellTiter-Glo, 6 days; assay type: cell-based, human; settings: KMS-11, 6 days
Description: as §3, §1

MM.1R cells = assay: MM cell growth, CellTiter-Glo, 6 days; assay type: cell-based, human
Description: as §3, §1

[4] = test system: BAF155 dimethylation in U266B1 cells; assay: BAF155 dimethylation in MM cells, western blotting; assay type: cell-based, human
Description: as §4

[5] = test system: BAF155 dimethylation in NCI-H929 cells; assay: BAF155 dimethylation in MM cells, western blotting; assay type: cell-based, human
Description: as §4

[6] = molecular target: T4, PRMT5/Methylosome protein (MEP)50 complex (Homo sapiens, UniProt O14744); assay: PRMT5 methyltransferase scintillation proximity assay; assay type: biochemical
T4 construct: 1–637 (PRMT5); made in house
T4 sequence (O14744 whole entry): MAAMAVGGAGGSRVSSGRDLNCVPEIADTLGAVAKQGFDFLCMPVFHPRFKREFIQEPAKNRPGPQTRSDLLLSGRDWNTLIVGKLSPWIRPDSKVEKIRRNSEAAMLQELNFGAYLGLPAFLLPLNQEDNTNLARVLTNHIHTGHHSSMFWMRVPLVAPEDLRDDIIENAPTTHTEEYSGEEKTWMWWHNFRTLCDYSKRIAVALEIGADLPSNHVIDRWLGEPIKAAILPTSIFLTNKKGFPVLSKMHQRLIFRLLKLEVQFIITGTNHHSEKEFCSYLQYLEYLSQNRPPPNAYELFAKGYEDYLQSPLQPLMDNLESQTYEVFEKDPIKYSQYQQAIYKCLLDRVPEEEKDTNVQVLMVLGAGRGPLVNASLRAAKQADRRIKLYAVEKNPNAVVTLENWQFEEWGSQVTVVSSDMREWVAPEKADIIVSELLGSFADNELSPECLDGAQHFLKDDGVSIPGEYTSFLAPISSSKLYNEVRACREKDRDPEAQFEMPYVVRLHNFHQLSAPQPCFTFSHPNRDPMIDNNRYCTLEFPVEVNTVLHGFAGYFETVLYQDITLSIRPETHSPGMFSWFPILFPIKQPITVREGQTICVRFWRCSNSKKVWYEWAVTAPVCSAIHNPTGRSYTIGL
T4 sequence (Q9BQA1 whole entry partner): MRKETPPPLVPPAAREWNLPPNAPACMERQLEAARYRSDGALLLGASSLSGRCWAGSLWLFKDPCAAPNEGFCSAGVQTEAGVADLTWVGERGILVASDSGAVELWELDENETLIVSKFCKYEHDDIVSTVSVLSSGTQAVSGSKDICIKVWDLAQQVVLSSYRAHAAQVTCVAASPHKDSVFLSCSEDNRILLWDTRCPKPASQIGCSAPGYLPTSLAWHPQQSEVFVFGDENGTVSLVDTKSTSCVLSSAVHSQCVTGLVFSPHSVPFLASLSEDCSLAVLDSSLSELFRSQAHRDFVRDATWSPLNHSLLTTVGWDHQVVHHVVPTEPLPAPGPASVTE
Description: as §5, §6

[7] = test system: dimethylation of MED12 (PRMT4 substrate); assay: MED12 dimethylation in HEK293 cells, western blotting; assay type: cell-based, human; settings: 3 days
Description: (§7) Graphs represent nonlinear curve fits of dimethyl-BAF155 and dimethyl-MED12 signal intensities normalized to total BAF155 or MED12, respectively. Data represent mean ± SEM of two independent experiments prepared in triplicate.
(§8) After incubation for 3 min at room temperature, sodium dodecyl sulfate (SDS) was added to a final concentration of 1%. […] Blots were blocked for 1 h in blocking buffer composed of 5% milk and 0.1% Tween 20 in phosphate-buffered saline (PBS) and then incubated overnight at 4°C in blocking buffer containing primary antibodies against MED12 (1:1000) (Abnova, Taipei, Taiwan; H00009968-A01), MED12 with asymmetrically dimethylated arginine (1:1000; gift from Dr. Mark Bedford and Cell Signaling Technology, Danvers, MA, USA), BAF155 (1:500) (Santa Cruz Biotechnology, Santa Cruz, CA, USA; sc32763), or R1064-dimethylated BAF155 (1:2000) (Millipore; ABE1339). […] The signal was detected on an Odyssey scanner (LI-COR Biosciences) at 800 and 700 nm.

PRMT6 = molecular target: T5, PRMT6 (Homo sapiens, UniProt Q96LA8); assay: PRMT6 methyltransferase scintillation proximity assay; assay type: biochemical
T5 construct: 1–375; made in house
T5 sequence (Q96LA8 whole entry): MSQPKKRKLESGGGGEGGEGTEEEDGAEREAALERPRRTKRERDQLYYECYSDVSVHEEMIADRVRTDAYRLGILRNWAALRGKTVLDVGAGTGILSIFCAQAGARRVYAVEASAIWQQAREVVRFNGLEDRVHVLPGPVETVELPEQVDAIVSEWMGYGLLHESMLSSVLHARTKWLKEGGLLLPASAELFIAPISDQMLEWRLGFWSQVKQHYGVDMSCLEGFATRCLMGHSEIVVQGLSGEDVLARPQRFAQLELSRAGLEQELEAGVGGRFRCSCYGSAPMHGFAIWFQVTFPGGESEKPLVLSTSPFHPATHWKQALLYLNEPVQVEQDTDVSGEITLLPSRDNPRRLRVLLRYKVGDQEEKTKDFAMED
Description: as §5, §6

[8] = test system: dimethylation of BAF155 (PRMT4 substrate); assay: BAF155 dimethylation in HEK293 cells, western blotting; assay type: cell-based, human; settings: 3 days
Description: as §7, §8

PRMT3 = molecular target: T6, PRMT3 (Homo sapiens, UniProt O60678); assay: PRMT3 methyltransferase scintillation proximity assay; assay type: biochemical
T6 construct: 106–426 (within the); made in house
T6 sequence (O60678 211-531 limits assumed): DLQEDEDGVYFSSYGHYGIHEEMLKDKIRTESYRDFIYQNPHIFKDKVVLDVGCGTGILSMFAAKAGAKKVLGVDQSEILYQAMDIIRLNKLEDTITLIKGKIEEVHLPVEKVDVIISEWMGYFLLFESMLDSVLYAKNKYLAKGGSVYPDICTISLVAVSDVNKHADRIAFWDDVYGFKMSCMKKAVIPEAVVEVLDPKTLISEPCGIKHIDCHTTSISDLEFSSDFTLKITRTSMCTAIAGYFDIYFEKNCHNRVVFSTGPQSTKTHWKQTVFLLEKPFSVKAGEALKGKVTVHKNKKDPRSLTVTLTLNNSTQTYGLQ
Description: as §5, §6

PRMT4 [9] = molecular target: T3, PRMT4; assay: Differential static light scattering (DSLS) binding; settings: at 80 μM
Description: DSLS was performed as previously described [34] using 100 mM HEPES (pH 7.5), 150 mM NaCl, 3% DMSO, and 0.4 mg ml^−1 (6 μM) protein in a 10-μl reaction volume.

PRMT8 = molecular target: T7, PRMT8 (Homo sapiens, UniProt Q9NR22); assay: PRMT8 methyltransferase scintillation proximity assay; assay type: biochemical
T7 construct: 1–394; made in house
T7 sequence (Q9NR22 whole entry): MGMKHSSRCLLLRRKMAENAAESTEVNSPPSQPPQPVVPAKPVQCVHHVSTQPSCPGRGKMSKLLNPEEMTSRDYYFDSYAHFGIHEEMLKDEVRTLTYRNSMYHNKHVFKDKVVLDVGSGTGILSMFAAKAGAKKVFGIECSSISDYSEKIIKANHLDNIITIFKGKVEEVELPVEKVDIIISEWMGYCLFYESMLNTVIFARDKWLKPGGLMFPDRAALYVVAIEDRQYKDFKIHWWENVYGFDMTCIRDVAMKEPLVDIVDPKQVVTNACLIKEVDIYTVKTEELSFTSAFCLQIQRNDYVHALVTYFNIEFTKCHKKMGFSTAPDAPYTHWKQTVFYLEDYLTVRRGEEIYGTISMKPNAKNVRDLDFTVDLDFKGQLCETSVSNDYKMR
Description: as §5, §6

[10] = test system: 24 protein lysine methyltransferases and DNA methyltransferases; assay: Selectivity assay against other methyltransferases; assay type: biochemical; settings: for inhibition of other methyltransferases: tested at 1 and 10 μM
Description: The selectivity assay was performed as previously described [31]. The effect of test compounds on the methyltransferase activities of Euchromatic histone-lysine N-methyltransferase 2 (G9a), G9a-like protein (GLP), Suppressor of variegation 3-9 homolog (SUV39H)1, SUV39H2, SUV420H1, SUV420H2, SET domain (SETD)2, SETD8, SETD bifurcated 1 (SETDB1), SETD7, Mixed-lineage leukemia (MLL)1 trimeric complex, MLL3 pentameric complex, Enhancer of zeste homolog (EZH)2 trimeric complex, PRMT1, PRMT3, PRMT4, PRMT5/Methylosome protein (MEP)50 complex, PRMT6, PRMT7, PRMT8, PRMT9, PR domain zinc finger protein (PRDM)9, SET and MYND domain-containing (SMYD)2, SMYD3, and DNA methyltransferase (DNMT)1 was assessed by monitoring the incorporation of a tritium-labeled methyl group into substrates with the scintillation proximity assay [32]. Briefly, a 10-μl reaction containing ^3H-SAM and substrate at concentrations close to the apparent Km values for each enzyme was prepared. Two concentrations (1 and 10 μM) of compound were tested. The reactions were quenched with 10 μl of 7.5 M guanidine hydrochloride; 180 μl of 20 mM Tris buffer (pH 8.0) were added, and the mixture was transferred to a 96-well FlashPlate followed by incubation for 1 h. The counts per minute (CPM) was measured on a TopCount plate reader; the CPM in the absence of compound or enzyme was defined as 100% activity and background (0%), respectively, for each dataset.

[11] = test system: panel of 89 (69 solid and 20 hematologic) cancer cell lines; assay: Cell panel viability, CellTiter-Glo, 3 days; assay type: cell-based, human; settings: 3 μM
Description: In addition, to further validate the role of PRMT4 in MM cell growth, we performed PRMT4 knockdown in NCI-H929 cells and observed PRMT4 knockdown-induced growth inhibition (Supplementary Figure 5). Thus, pharmacological inhibition of PRMT4 by small molecules may be a therapeutic option for some MM treatment.
as §3, §1

PRMT1 = molecular target: T8, PRMT1 (Homo sapiens, UniProt Q99873); assay: PRMT1 methyltransferase scintillation proximity assay; assay type: biochemical
T8 construct: 30–371; made in house
T8 sequence (Q99873 30-371): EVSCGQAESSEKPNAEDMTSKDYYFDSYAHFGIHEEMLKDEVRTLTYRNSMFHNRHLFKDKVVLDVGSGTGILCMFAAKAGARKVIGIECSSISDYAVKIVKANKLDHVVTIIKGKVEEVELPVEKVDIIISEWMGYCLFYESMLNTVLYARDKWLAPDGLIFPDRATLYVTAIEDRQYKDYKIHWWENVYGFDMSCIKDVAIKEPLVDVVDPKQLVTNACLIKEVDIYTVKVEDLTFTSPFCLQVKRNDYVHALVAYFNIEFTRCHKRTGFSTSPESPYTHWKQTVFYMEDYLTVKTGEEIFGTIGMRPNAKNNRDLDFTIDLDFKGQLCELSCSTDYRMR
Description: as §5

PRMT4 [12] = molecular target: T3, PRMT4; assay: PRMT4 methyltransferase scintillation proximity assay; assay type: biochemical; design: 1–608; made in house
Description: as §5

In the case of `CNCCN1CCC(c2cc(CN(C)C(=O)c3cccc(Oc4ccccc4)c3)ccn2)CC1` [TP-064, N-methyl-N-((2-(1-(2-(methylamino)ethyl)piperidin-4-yl)pyridin-4-yl)methyl)-3-phenoxybenzamide], the anti-proliferative activity [1] is reported as “did not exhibit; also recorded: no effect”, the G1 cell fraction (NCI-H929 cells) is reported as 63.5% and the G2-M cell fraction (NCI-H929 cells) is reported as 20.2%. The S cell fraction (NCI-H929 cells) was 7.89%, the sub-G1 cell fraction (NCI-H929 cells) was 5.73% and the IC50 ([2]; Homo sapiens, 72 h, KMS-27, 3 days, read-out: methyl / total BAF155 IC50) was 400 nM. For the same compound, the IC50 (PRMT9) was over 10 µM, the “cytotoxic response of K562 cells” value (K562 cells) was “weak response” and the IC50 (PRMT7) was over 10 µM. For the same compound, the mode of inhibition (PRMT4 [3]) was “non-competitive”, the “Growth at 3 μM (%)” value (KMS-26 cells) was -19.5% and the “Growth at 3 μM (%)” value (KMS-20 cells) was -22.5%. For the same compound, the “Growth at 3 μM (%)” value (U266B1 cells) was -24.4%, the “Growth at 3 μM (%)” value (KMS-12BM cells) was -8.2% and the “Growth at 3 μM (%)” value (KMS-27 cells) was -17.2%. The IC50 (RPMI8226 cells; Homo sapiens, RPMI-8226, 144 h) was 886 nM, the “Growth at 3 μM (%)” value (RPMI8226 cells) was -58.3% and the “Growth at 3 μM (%)” value (KMS-12PE cells) was -4.4%. The “Growth at 3 μM (%)” value (KMS-28BM cells) was -24.1%, the “Growth at 3 μM (%)” value (MM.1S cells) was -31.0% and the “Growth at 3 μM (%)” value (KMS-11 cells) was -17.2%. The “Growth at 3 μM (%)” value (MM.1R cells) was -37.8%, the IC50 ([4]; Homo sapiens, 72 h, U266B1, 3 days, read-out: methyl / total BAF155 IC50) was 486 nM and the IC50 ([5]; Homo sapiens, 72 h, NCI-H929, 3 days, read-out: methyl / total BAF155 IC50) was 716 nM. For the same compound, the IC50 [6] was over 10 µM, the IC50 ([7]; Homo sapiens, 72 h) was 43 ± 10 nM and the IC50 (PRMT6) was 1300 ± 400 nM. For the same compound, the IC50 ([8]; Homo sapiens, 72 h) was 340 ± 30 nM, the IC50 (PRMT3) was over 10 µM and the “increase of aggregation temperature (Tagg), DSLS” value (PRMT4 [9]) was “about 6 °C”. For the same compound, the IC50 (PRMT8) was 8.1 ± 0.6 µM, the IC50 [10] was over 10 µM and the “inhibition of other methyltransferases” value [10] was “did not inhibit”. For the same compound, the “growth inhibition in cancer cell panel” value [11] was “inhibited the growth of a subset of MM cell lines”.

With `COCCN1CCC(c2cc(CN(C)C(=O)c3cccc(Oc4ccccc4)c3)ccn2)CC1` [TP-064N, N-((2-(1-(2-methoxyethyl)piperidin-4-yl)pyridin-4-yl)methyl)-N-methyl-3-phenoxybenzamide] the “effect on cell cycle” value (NCI-H929 cells; NCI-H929) was “no/little effect”, the G1 cell fraction (NCI-H929 cells) was 53.2% and the G2-M cell fraction (NCI-H929 cells) was 24.1%. For the same compound, the S cell fraction (NCI-H929 cells) was 13.2%, the sub-G1 cell fraction (NCI-H929 cells) was 5.14% and the “effect on dimethyl-BAF155 level” value ([2]; KMS-27, 72 h) was “no effect”. For the same compound, the IC50 (PRMT9) was over 10 µM, the IC50 (PRMT7) was over 10 µM and the IC50 (PRMT1) was over 10 µM. The “effect on dimethyl-BAF155 level” value ([4]; U266B1, 72 h) was “no effect”, the “effect on dimethyl-BAF155 level” value ([5]; NCI-H929, 72 h) was “no effect” and the IC50 [6] was over 10 µM. The “inhibition of MED12 dimethylation” value ([7]; up to 10 μM) was “did not inhibit”, the IC50 (PRMT6) was over 10000 nM and the “inhibition of BAF155 dimethylation” value ([8]; up to 10 μM) was “did not inhibit”. It also gave an IC50 (PRMT3) of over 10 µM, an IC50 (PRMT4 [12]) of 2500 ± 600 nM and an IC50 (PRMT8) of over 10 µM. The IC50 [10] was over 10 µM and the “inhibition of other methyltransferases” value [10] was “completely inactive”.
